Experiments:
[1] = Physical stability of amorphous form on storage under ambient conditions, followed by XRPD; assay type: physicochemical
From the text: (§1) The physical form of onapristone, either as the bulk drug substance or in its compositions, was established using X-ray powder diffraction (XRPD). XRPD patterns were obtained using a Rigaku MiniFlex powder diffraction system, equipped with a horizontal goniometer operating in the θ/2θ mode. The X-ray source was nickel-filtered Kα emission of copper (1.54184 Å). Samples were packed into the sample holder using a back-fill procedure, and were scanned over the range of 3.5 to 40 degrees 2θ at a scan rate of 0.5 degrees 2θ/min. Using a data acquisition rate of 1 point per second, these scanning parameters equate to a step size of 0.0084 degrees 2θ. Calibration of the diffractometer system was effected using purified talc as a reference material. The intensity scale for all diffraction patterns was normalized so that the relative intensity of the most intense peak in the pattern equaled 100%.
After the initial characterization, the substance was placed in a glass vial, and stored under ambient conditions (temperature of 22-24° C.). The product was subsequently obtained after storage under ambient conditions for 25 weeks, 43 weeks, and 16.5 months.
XRPD patterns of these samples were obtained when initially received and after 12 weeks, 20 weeks, 36 weeks, and 15 months had elapsed. The XRPD patterns obtained for sample SSF-PDS-027-001A are collected in FIG. 2, while the XRPD patterns obtained for sample SSF-PDS-027-001B are collected in FIG. 3.

[2] = Physical form by X-ray powder diffraction (XRPD); assay type: physicochemical; details: no sharp scattering peaks attributable to crystalline onapristone
From the text: In one aspect, amorphous onapristone is formed by adding onapristone to water, dissolving the onapristone in the water by adding one equivalent of an acid solution, and subsequently increasing the pH of the solution by the addition of one equivalent of base. At the end of this process, an amorphous precipitate is formed which may be isolated and characterized. […] The presence of a crystalline substance is indicated by the presence of sharp peaks (i.e., those whose width at half-height is in the range of 0.3 to 0.5 degrees 2θ) in an XRPD pattern, while the XRPD pattern of an amorphous substance is characterized by the presence of broad scattering peaks (i.e., those whose width at half-height is in the range of at least 8 to 12 degrees 2θ).
as §1, with “Calibration of the diffractometer system was effected using purified talc as a reference material. The intensity scale for all diffraction patterns was normalized so that the relative intensity of the most intense peak in the pattern equaled 100%.” left out

Structure (SMILES) | storage period over which the drug substance remained amorphous ([1]; stored under ambient conditions (22-24° C.)) [months] | storage period over which the drug substance remained amorphous ([1]; stored under ambient conditions (22-24° C.), listed as pH-cycled product) | physical form of onapristone by XRPD as initially prepared [2] | storage period over which the drug substance remained amorphous ([1]; stored under ambient conditions)
CN(C)c1ccc([C@H]2C[C@]3(C)[C@@H](CC[C@]3(O)CCCO)[C@@H]3CCC4=CC(=O)CCC4=C32)cc1 [pH-cycled onapristone] | ≥ 16.5 | at least 16.5 months | amorphous | 
CN(C)c1ccc([C@H]2C[C@]3(C)[C@@H](CC[C@]3(O)CCCO)[C@@H]3CCC4=CC(=O)CCC4=C32)cc1 [solvation-desolvation product] |  |  |  | at least 29 weeks
